Measured values from patent publication US6103888A, “Mammalian cationic proteins having lipopolysaccharide binding and anti-coagulant activity” (priority 1999, dated 2000).

Legend:
[1] = test system: Salmonella minnesota ReLPS sensitized sheep erythrocytes; assay: LPS hemagglutination assay (MAC); assay type: binding
Description: (§1) For hemagglutination assays, erythrocytes were sensitized with LPS as follows. One ml of 1% erythrocyte suspension (human 0 type, C3H/HeN mouse or sheep) was mixed with 0.2 ml of LPS solution and incubated at 37° C. for 30 min, followed by washing with phosphate buffered saline (PBS), and then the concentration of suspension was adjusted to 1.0%. In the case of S-LPS, the solution was heated at 100° C. for 1 hour before sensitization of erythrocytes. […] Activity of CAP was expressed as a minimum agglutinating concentration (MAC) of CAP. According to the method of Kirikae et al. (1986) Microbiol. Immunol. 30:269-274, 50 μl of 2-fold serial dilution of Re-LPS was added to 50 μl of 1.0% rabbit erythrocyte suspension, and incubated at 37° C. for 3 hour. Minimum agglutinating concentration of Re-LPS was expressed as 1 HA unit.

[2] = test system: E. coli 0111:B4 LPS; assay: Inhibition of RNIP-mediated hemagglutination by LPS preparation; assay type: binding; conditions: Peptide #36-1 16 μg/ml, RNIP (#197) 25 μg/ml preincubated with LPS 37° 30 minutes
Description: as §1
(§2) Another series of experiments was performed to determine if the #36-1 and #197 (RNIP) peptides were capable of binding to LPS from various species of Gram-negative bacteria. For these experiments, sheep red blood cells were sensitized with Salmonella minnesota Re-LPS. Peptides #36-1 and #197 (RNIP) were preincubated with various preparations of LPS. Both peptides bind to a diverse group of lipopolysaccharides.
(§3) +Peptide #361 (16 μg/ml) and RNIP (#197) (25 μg/ml) were
(§4) preincubated with each LPS preparation at 37° for 30 minutes, and
(§5) each reaction mixture was added to sheep erythrocytes sensitized with […]

[3] = test system: E. coli 0127:B8 LPS; assay: as above; assay type: binding; conditions: Peptide #36-1 16 μg/ml, RNIP (#197) 25 μg/ml preincubated with LPS 37° 30 minutes
Description: as §1, §2, §3, §4, §5

[4] = test system: E. coli 055:B5 LPS; assay: as above; assay type: binding; conditions: Peptide #36-1 16 μg/ml, RNIP (#197) 25 μg/ml preincubated with LPS 37° 30 minutes
Description: as §1, §2, §3, §4, §5

[5] = test system: E. coli J5 LPS; assay: as above; assay type: binding; conditions: Peptide #36-1 16 μg/ml, RNIP (#197) 25 μg/ml preincubated with LPS 37° 30 minutes
Description: as §1, §2, §3, §4, §5

[6] = test system: Klebsiella pneumoniae LPS; assay: as above; assay type: binding; conditions: Peptide #36-1 16 μg/ml, RNIP (#197) 25 μg/ml preincubated with LPS 37° 30 minutes
Description: as §1, §2, §3, §4, §5

[7] = test system: Pseudomonas aeruginosa F-D Type I LPS; assay: as above; assay type: binding; conditions: Peptide #36-1 16 μg/ml, RNIP (#197) 25 μg/ml preincubated with LPS 37° 30 minutes
Description: as §1, §2, §3, §4, §5

[8] = test system: Salmonella minnesota R595 LPS; assay: as above; assay type: binding; conditions: Peptide #36-1 16 μg/ml, RNIP (#197) 25 μg/ml preincubated with LPS 37° 30 minutes
Description: as §1, §2, §3, §4, §5

[9] = test system: E. coli (HB101); assay: Bacterial proliferation, 3H-thymidine incorporation assay; assay type: cell-based; conditions: for Percent inhibition of proliferation: E. coli (HB101)
Description: (§6) Bacteria were grown in trypticase broth overnight.
(§7) To corroborate the anti-bacterial activity shown in the CFU assays, inhibition of proliferation of bacteria was tested directly using a ^3 H-thymidine incorporation assay. […] In summary although there is some strain to strain variation in the IC50, all of the Gram-negativestrains tested in two different types of assays were sensitive to these anti-microbial peptides.

[10] = test system: Klebsiella pneumoniae; assay: as above; assay type: cell-based
Description: as §6, §7

[11] = test system: Pseudomonas aeruginosa; assay: as above; assay type: cell-based
Description: as §6, §7

[12] = test system: Pseudomonas apacia; assay: as above; assay type: cell-based
Description: as §6, §7

[13] = test system: Staphylococcus aureus, coagulase positive; assay: as above; assay type: cell-based
Description: as §6, §7

[14] = test system: Streptococcus pneumoniae; assay: as above; assay type: cell-based
Description: as §6, §7

[15] = test system: Streptococcus pyogenes; assay: as above; assay type: cell-based
Description: as §6, §7

[16] = test system: RAW 264.7 cells; assay: Reversal of LPS-induced inhibition of cell proliferation; assay type: cell-based, murine; conditions: cultures containing 5 ng/ml of LPS
Description: When LPS is added to RAW 264.7 cells it causes a dose-dependent inhibition of proliferation with differentiation of the cells into a macrophasge phenotype.

[17] = test system: Human plasma; assay: Prothrombin time (PT); assay type: biochemical
Description: Prothrombin time (PT). Human plasma (100 μl) was incubated with 100 μl of each peptide at 37° C. for 3 min., then 100 μl of tissue factor (250 μg/ml) CaCl2 was added and clotting time was measured.

[18] = biological target: prothrombin (factor II) (Homo sapiens, UniProt P00734); assay: Prothrombin activation by Echis Carinatus venom (ECV); assay type: biochemical
Description: Prothrombin activation by Echis Carinatus venom (ECV). A reaction mixture of prothrombin (factor II) (0.1 unit/ml, 200 μl), ECV (1 unit/ml, 200 μl), various concentration of peptide (70 μl), 50 μl of 25 mM-CaCl2 and 180 μl of Tris buffer was incubated at 37° C. for 10 min. To 300 μl of the reaction mixture, 60 μl of 4 mM-thrombin substrate and 240 μl of buffer was added and further incubated for 15 min.

[19] = test system: E. coli O9:K39 K- strain; assay: Antibacterial CFU assay

Substance: RNIP: rabbit reactive nitrogen inhibitory protein, amino acids 135-171 of SEQ ID NO:4; purified from granulocytes (Tables 1-3) or synthetic (#197) (GLRKRLRKFRNKIKEKLKKIGQKIQGLLPKLAPRTDY)
- Hemagglutination [MAC], minimum agglutinating concentration [1]: 7.9 µg/mL
- MIC, minimal inhibitory concentration of LPS [2]: 31.3 µg/mL
- MIC, minimal inhibitory concentration of LPS [3]: 62.5 µg/mL
- MIC, minimal inhibitory concentration of LPS [4]: 62.5 µg/mL
- MIC, minimal inhibitory concentration of LPS [5]: 15.6 µg/mL
- MIC, minimal inhibitory concentration of LPS [6]: 62.5 µg/mL
- MIC, minimal inhibitory concentration of LPS [7]: 15.6 µg/mL
- MIC, minimal inhibitory concentration of LPS [8]: 62.5 µg/mL
- Percent inhibition of proliferation ([9]; RNIP 0.6 μg/ml): 81%
- Percent inhibition of proliferation ([9]; RNIP 1.25 μg/ml): 88%
- Percent inhibition of proliferation ([9]; RNIP 2.5 μg/ml): 99%
- Percent inhibition of proliferation ([9]; RNIP 5.0 μg/ml): 99%
- Inhibition (%) of E. coli (HB101) proliferation ([9]; RNIP 2.5 μg/ml, FCS concentration 0 %): 94 ± 10.3%
- Inhibition (%) of E. coli (HB101) proliferation ([9]; RNIP 2.5 μg/ml, FCS concentration 1 %): 91 ± 10.9%
- Inhibition (%) of E. coli (HB101) proliferation ([9]; RNIP 2.5 μg/ml, FCS concentration 5 %): 87 ± 3.1%
- Inhibition (%) of E. coli (HB101) proliferation ([9]; RNIP 2.5 μg/ml, FCS concentration 10 %): 78 ± 5.5%
- Percent inhibition of proliferation ([10]; RNIP 0.6 μg/ml): 4%
- Percent inhibition of proliferation ([10]; RNIP 1.25 μg/ml): 14%
- Percent inhibition of proliferation ([10]; RNIP 2.5 μg/ml): 17%
- Percent inhibition of proliferation ([10]; RNIP 5.0 μg/ml): 60%
- Percent inhibition of proliferation ([11]; RNIP 0.6 μg/ml): 75%
- Percent inhibition of proliferation ([11]; RNIP 1.25 μg/ml): 82%
- Percent inhibition of proliferation ([11]; RNIP 2.5 μg/ml): 96%
- Percent inhibition of proliferation ([11]; RNIP 5.0 μg/ml): 99%
- Percent inhibition of proliferation ([12]; RNIP 0.6 μg/ml): 81%
- Percent inhibition of proliferation ([12]; RNIP 1.25 μg/ml): 80%
- Percent inhibition of proliferation ([12]; RNIP 2.5 μg/ml): 99%
- Percent inhibition of proliferation ([12]; RNIP 5.0 μg/ml): 99%
- Percent inhibition of proliferation ([13]; RNIP 0.6 μg/ml): 23%
- Percent inhibition of proliferation ([13]; RNIP 1.25 μg/ml): 57%
- Percent inhibition of proliferation ([13]; RNIP 2.5 μg/ml): 72%
- Percent inhibition of proliferation ([13]; RNIP 5.0 μg/ml): 83%
- Percent inhibition of proliferation ([14]; RNIP 0.6 μg/ml): 31%
- Percent inhibition of proliferation ([14]; RNIP 1.25 μg/ml): 47%
- Percent inhibition of proliferation ([14]; RNIP 2.5 μg/ml): 68%
- Percent inhibition of proliferation ([14]; RNIP 5.0 μg/ml): 93%
- Percent inhibition of proliferation ([15]; RNIP 0.6 μg/ml): 74%
- Percent inhibition of proliferation ([15]; RNIP 1.25 μg/ml): 79%
- Percent inhibition of proliferation ([15]; RNIP 2.5 μg/ml): 90%
- Percent inhibition of proliferation ([15]; RNIP 5.0 μg/ml): 96%
- effect on LPS-induced inhibition of RAW 264.7 cell proliferation [16]: reverses the inhibition of proliferation
- inhibition of the prothrombin time (PT), in words [17]: inhibited
- inhibition of Echis carinatus venom activation of purified factor II to IIa (in words) [18]: inhibited
- IC50, anti-bacterial activity [19]: 0.68 µg/mL
- IC50 ([19]; read-out: IC50, anti-bacterial activity): 110 nM
